Results as given in paper PMC11249626, “Fluorophore-Labeled Pyrrolones Targeting the Intracellular Allosteric Binding Site of the Chemokine Receptor CCR1” (ACS Pharmacology & Translational Science, 2024).
Read-outs that look alike come from different tables or passages of the source.

Tests used:
CCR1 = biological target: T1, CCR1 (Homo sapiens, UniProt P32246); assay: Membrane-based NanoBRET competition kinetic assay with 12 (1000 nM) and CCR1_Nluc membranes; assay type: binding; parameters: Promega pNLF1-C (Nluc) #CCR010TN00; host or cells: HEK293T, transient (PEI)
T1 sequence (P32246 1-355): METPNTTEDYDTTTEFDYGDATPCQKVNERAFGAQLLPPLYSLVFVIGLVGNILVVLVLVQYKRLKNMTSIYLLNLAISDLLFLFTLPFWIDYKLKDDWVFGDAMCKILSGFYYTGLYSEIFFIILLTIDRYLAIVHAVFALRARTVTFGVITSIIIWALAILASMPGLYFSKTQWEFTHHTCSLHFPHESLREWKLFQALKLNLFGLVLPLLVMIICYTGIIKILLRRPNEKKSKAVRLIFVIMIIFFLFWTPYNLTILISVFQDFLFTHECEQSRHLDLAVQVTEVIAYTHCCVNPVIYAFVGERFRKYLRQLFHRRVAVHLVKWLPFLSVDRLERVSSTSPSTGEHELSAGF

[1] = biological target: T2, human chemokine receptor CCR2 (Homo sapiens, UniProt P41597); assay: Cellular NanoBiT β-arrestin recruitment assay; assay type: cell-based; settings: in the presence of CCL2 (10 nM), HEK293T cells
T2 construct: expressed in transfected cells; host or cells: HEK293T, transient
Experimental: (PerkinElmer, Groningen, NL).
(§1) Cellular NanoBiT β-arrestin recruitment assays: Chemokine-induced β-arrestin-2 recruitment to chemokine receptors CCR1 and CCR2 was monitored using a nanoluciferase complementation -based assay (NanoBiT, Promega). 17-19 5 x 10^6 HEK293T cells were plated in 10 cm dishes and cultured for 24 h before transfection with vectors encoding for the human chemokine receptor CCR1 or CCR2 C-terminally fused with SmBiT and β-arrestin 2 N-terminally fused with LgBiT. 24 h after transfection cells were harvested, distributed into white 96-well plates (5 × 10^4 cells per well) and incubated for 1 h at 37 °C with compound 23 at concentrations ranging from 10 nM to 10 µM. The endogenous chemokine ligand CCL5 (3 nM, for CCR1) or CCL2 (10 nM, for CCR2) was then added, and luminescence generated upon nanoluciferase complementation in the presence of coelenterazine H was measured with a Mithras LB940 luminometer (Berthold Technologies) for 20 min. […]
(§2) Finally, the top 5% of the identified hits were subsequently docked to a homology model of CCR1 (vide infra). After visual examination of the obtained binding modes 24 hit compounds were identified for further investigation .
(§3) Molecular docking: For the docking studies in the course of our virtual screening campaign, the CCR1 protein was […]
27, 28 CCR1 structure was optimized using the Quickprep and structure preparation wizard in MOE 24 using CHARMM27 forcefield. The protein was saved in mol2 format and loaded in GOLD.25, 26 The amino acids defining the IABS were listed in a text file to define the docking cavity. 50 GA runs were performed for docking CCR2-RA-[R] (4-[R]) and SN_12 (43), with the generated solutions clustered based on their RMSD with the threshold set to 0.75 Å using the complete linkage method. Docking runs were performed using ChemScore. […]

[2] = biological target: T3, human chemokine receptor CCR1 (Homo sapiens, UniProt P32246); assay: Cellular NanoBiT β-arrestin recruitment assay; assay type: cell-based
T3 construct: expressed in transfected cells; host or cells: HEK293T, transient
T3 sequence (P32246 1-355): T1 sequence (P32246 1-355)
Experimental: as §1, with “CCR1” for “Cellular NanoBiT β-arrestin recruitment assays: Chemokine-induced β-arrestin-2 recruitment to chemokine receptors CCR1”
as §2, §3
27, 28 CCR1 structure was optimized using the Quickprep and structure preparation wizard in MOE 24 using CHARMM27 forcefield. The protein was saved in mol2 format and loaded in GOLD.25, 26 The amino acids defining the IABS were listed in a text file to define the docking cavity. 50 GA runs were performed for docking CCR2-RA-[R] (4-[R]) and SN_12 (43), with the generated solutions clustered based on their RMSD with the threshold set to 0.75 Å using the complete linkage method. Docking runs were performed using ChemScore. Flexibility of amino acids Lys63ICL1, Arg1313.50, Leu2406.36 and Arg3078.49 was taken in consideration in the docking runs, with conformational sampling of their side chains being done by the rotamer libraries implemented in GOLD.25, 26 For the docking studies with our ligand-linker conjugates (Figure S1), molecular ligand structures were geometry optimized as neutral molecules by means of Avogadro (Version 1.2.0)29 using the Universal Force Field (UFF) and the Steepest Decent Algorithm until convergence (ΔE = 0).
CCR113 was used for docking. The compounds were docked by means of AutoDock Vina 1.1.2.30, 31 An exhaustiveness value of 8 and a search space of 22 x 22 x 22 Å³ was applied around the unliganded intracellular allosteric binding site of CCR1. Twenty docking poses were generated for each ligand and inspected manually and according to the docking score.

T2 sequence (P41597 whole entry): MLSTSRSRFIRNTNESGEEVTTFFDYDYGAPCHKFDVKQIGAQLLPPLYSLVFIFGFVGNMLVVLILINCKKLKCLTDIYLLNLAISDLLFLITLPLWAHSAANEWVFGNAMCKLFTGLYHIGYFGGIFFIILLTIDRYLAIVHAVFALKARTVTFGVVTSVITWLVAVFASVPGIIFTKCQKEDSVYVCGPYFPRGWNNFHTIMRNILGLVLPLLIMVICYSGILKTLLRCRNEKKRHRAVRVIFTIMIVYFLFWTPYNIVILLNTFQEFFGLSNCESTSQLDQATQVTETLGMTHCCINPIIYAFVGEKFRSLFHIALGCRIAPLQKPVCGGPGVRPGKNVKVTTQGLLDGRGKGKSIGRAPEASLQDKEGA

| Structure (SMILES) | koff (CCR1; CCR1_Nluc membranes) | kon (CCR1; CCR1_Nluc membranes) | tr (kinetic competition) (CCR1; CCR1_Nluc membranes) | Ki (CCR1; kinetic competition, read-out: Ki(kin.)) | IC50 ([1]; read-out: IC50 (CCR2), β-arrestin recruitment) | IC50 ([1]; read-out: pIC50(CCR2), β-arrestin recruitment (converted)) | IC50 ([2]; absence of agonist, read-out: IC50 (CCR1), basal β-arrestin recruitment) | IC50 ([2]; absence of agonist, read-out: pIC50(CCR1), basal β-arrestin recruitment (converted)) | CCR1 over CCR2 selectivity, β-arrestin recruitment ([2]; cellular NanoBiT assays) | IC50 ([2]; in the presence of CCL5 (3 nM), HEK293T cells, read-out: IC50 (CCR1), β-arrestin recruitment) |
| --- | --- | --- | --- | --- | --- | --- | --- | --- | --- | --- |
| CC(=O)C1=C(O)C(=O)N(c2ccc(Br)cc2F)C1C1CCCCC1 (stereo not shown) [compound 5, reference compound] | 0.0019 s⁻¹ | 723000 M⁻¹ s⁻¹ | 9.1 ± 0.5 min | 0.00263 µM | – | – | – | – | – | – |
| O=C(C1=C(O)C(=O)N(CCc2ccc(O)cc2)C1c1ccc(F)cc1)c1ccccc1 (racemic) [compound 23] | – | – | – | – | 186 µM | 195 µM | 6 µM | 6.17 µM | > 10 fold | 14.2 µM |
